Values of other authors in PMC12497738, “Linear and conformational epitopes of vicilin-buried peptides as a model for improved nut allergy diagnostics” (Frontiers in Allergy, 2025).
Entries after “also recorded” stand apart in the source; their conditions may differ.

Test system: 6D12 monoclonal antibody
Conditions: N-terminal helix, amino acids 21–36 of folded JR2.1; unpublished communications by Dr. Geoffrey Mueller (NIEHS); ref [16]
From the text: The mature vicilin domains in Figure 1A are labeled Jug r 2 and Ara h 1. A human monoclonal IgE antibody (6D12) was used to assess IgE binding to conformational epitopes in JR2LS and its three constituent VBPs using ciELISA (Figures 1B,C). […] With this method, a known immunodominant epitope of Ara h 2 was used to identify a cross-reactive, linear epitope in the JR2LS ([16]). The IgE binding regions identified in this study overlap or are near the previously described epitope containing areas, emphasizing the relevance of JR2LS VBPs as clinically relevant IgE targets ([16], [17]). Here, ELISA, linear peptide microarray, and computational analysis were used to ...

**Q.** With “CQEYCRRQGQGQRQQ [peptide 5, …, N-terminal helix, amino acids 21–36 of the folded JR2.1]” as the sequence, how does the “Binding of 6D12 to peptide 5, in words” value read?
**A.** The value was “specific binding; also recorded: the primary target of 6D12”.
